Each structure is given as a SMILES string. Square brackets hold non-standard residues; d marks the D form. Peptide text beside a SMILES is read from it. Cit = NC(=O)NCCC[C@H](N)C(=O)O

The target of this assay is HLA-DR0401 protein (Homo sapiens, UniProt P01903+P01911, A100K/A169T/F76Y/I96L/K127E/L162R/M171V/N62H/P40V/Q125Y/R42H/S133A/S149N/S66Y/V115G/V209L/W38E). The assay is described as follows: Peptide competition binding assay against biotinylated HA306–318 on HLA-DR0401.
`C[C@H](NC(=O)[C@H](C)NC(=O)[C@H](CCCNC(N)=O)NC(=O)[C@H](C)NC(=O)[C@@H]1CCCN1C(=O)[C@H](CCCNC(N)=O)NC(=O)[C@H](C)NC(=O)[C@H](CCCNC(=N)N)NC(=O)[C@H](Cc1ccc(O)cc1)NC(=O)CN)C(=O)N[C@@H](C)C(=O)N[C@H](C(=O)O)[C@@H](C)O` [Cit-Fib 1] (H-GYRA[Cit]PA[Cit]AAAT-OH): the IC50 (usually the concentration that gives 50% inhibition) came out at 8.2 µM.
For `CC(C)C[C@H](NC(=O)[C@H](CCCNC(N)=O)NC(=O)[C@@H](NC(=O)[C@H](C)NC(=O)[C@H](CO)NC(=O)[C@H](CO)NC(=O)[C@H](CCCNC(N)=O)NC(=O)[C@@H](NC(=O)[C@H](C)NC(=O)[C@H](Cc1ccc(O)cc1)NC(=O)[C@@H](NC(=O)CN)C(C)C)[C@@H](C)O)C(C)C)C(=O)N[C@@H](CCCNC(N)=O)C(=O)N[C@@H](CO)C(=O)N[C@@H](CO)C(=O)N[C@H](C(=O)N1CCC[C@H]1C(=O)NCC(=O)N[C@H](C(=O)N[C@@H](CCCNC(=N)N)C(=O)O)C(C)C)C(C)C` [Cit-Vim 1] (H-GVYAT[Cit]SSAV[Cit]L[Cit]SSVPGVR-OH), the IC50 was determined as 1.3 µM.
In turn, `CC(C)C[C@H](NC(=O)[C@H](CO)NC(=O)[C@H](CC(=O)O)NC(=O)[C@H](CC(C)C)NC(=O)[C@H](CC(N)=O)NC(=O)[C@@H](NC(=O)[C@H](CCC(=O)O)NC(=O)[C@H](CCCNC(N)=O)NC(=O)[C@H](CC(C)C)NC(=O)[C@H](CC(N)=O)NC(=O)[C@H](CC(C)C)NC(=O)[C@H](CO)NC(=O)[C@@H](N)CO)[C@@H](C)O)C(=O)O` [Cit-Vim 2] returned an IC50 of 14 µM.
`CC[C@H](C)[C@H](NC(=O)[C@H](CCCNC(N)=O)NC(=O)[C@@H](N)CCCCN)C(=O)N[C@@H](C)C(=O)N[C@@H](CCCCN)C(=O)N[C@@H](C)C(=O)N[C@H](C(=O)N[C@@H](CC(N)=O)C(=O)N[C@@H](CCC(=O)O)C(=O)N[C@@H](CCCCN)C(=O)N[C@@H](CO)C(=O)N[C@@H](CS)C(=O)N[C@@H](CC(N)=O)C(=O)N[C@@H](CS)C(=O)N[C@@H](CC(C)C)C(=O)O)C(C)C` [Cit-α-enolase 4] (H-K[Cit]IAKAVNEKSCNCL-OH) gave an IC50 of 1.9 µM.
As to `CC[C@H](C)[C@H](NC(=O)[C@H](CCCNC(=N)N)NC(=O)[C@@H](N)CCCCN)C(=O)N[C@@H](C)C(=O)N[C@@H](CCCCN)C(=O)N[C@@H](C)C(=O)N[C@H](C(=O)N[C@@H](CC(N)=O)C(=O)N[C@@H](CCC(=O)O)C(=O)N[C@@H](CCCCN)C(=O)N[C@@H](CO)C(=O)N[C@@H](CS)C(=O)N[C@@H](CC(N)=O)C(=O)N[C@@H](CS)C(=O)N[C@@H](CC(C)C)C(=O)O)C(C)C` [α-enolase 4] (H-KRIAKAVNEKSCNCL-OH), the half-maximal inhibitory concentration (IC50) is 1.7 µM.

The values are drawn from article PMC4248674 (Arthritis & rheumatology (Hoboken, N.J.), 2014).
